Test results taken from patent US20100004277A1, “COMPOUNDS AND METHODS FOR MODULATING PROTEIN TRAFFICKING” (FoldRx Pharmaceuticals, Inc., priority 2006, published 2010).
Residues, ends and D or L forms follow the SMILES beside them. *: point of attachment. Cbz = O=C(OCc1ccccc1)*

Assays:
[1] = test system: ypt1^ts cells; experiment: ypt1^ts mutant growth rescue assay (OD600); format: cell-based, yeast; settings: for rescue of ypt1^ts loss of function / restoring growth of ypt1^ts: 35° C. and 37° C.
Excerpt: The yeast mutant cell line ypt1^ts suppresses, in a temperature dependent fashion, the dominant-lethal phenotype of a mutant YPT1 allele (Schmitt et al. (1988) Cell 53:635-47). The yeast mutant cell line ypt1^ts contains an allele of YPT1 that has two point mutations: one that changes an asparagine at position 121 to a isoleucine (N121I) and another that changes an alanine at position 161 to a valine (A161V). The N121I mutation causes dominant lethality by itself, but lethality is suppressed by the second mutation, resulting in a recessive loss of function phenotype at the restrictive temperatures. ypt1^ts cells grow normally at temperatures up to 25° C., but are growth arrested at 37° C. (Id.).
Compounds that rescue cells from alpha-synuclein toxicity were screened to assess their ability to restore growth of ypt1^ts cells. The effect of the compounds was measured on ypt1^ts cells cultured at room temperature (permissive temperature), 37° C. (non-permissive temperature), and 35° C. (semi-permissive temperature).
To determine if the test compounds could rescue the ypt1^ts mutant phenotype, ypt1^ts cells were grown overnight in synthetic complete (SC) media supplementd with 2% glucose at room temperature. Log phase cells were diluted into SC 2% glucose media to an OD600 of 0.003. 100 μL of this culture was then aliquoted into each well of 96-well flat bottom microtiter plates. 1 μL of the test compounds dissolved in DMSO (at a concentration range from 5 mM-0.005 mM) or of DMSO alone was added to each well (50 uM-0.05 uM final concentration in 1% DMSO). Plates were mixed by vortexing and incubated at 35° C. and 37° C. Compound rescue of the ypt1^ts temperature sensitive defect was assessed by measuring the OD600 (optical density at 600 nm; cell growth) of the cultures. Plates incubated at 35° C. were measured at 24 and 40 hours incubation time while plates grown at 37° C. were measured after 40 hours of incubation.
Assays monitoring the rescue of ypt1^ts mutants were performed using a vehicle, a positive control (calcium), active compounds obtained from the alpha-synuclein screen (Cpd. I.1 and Cpd. II.1), alpha-synuclein-active analogs of Cpd. […] I.1 (Cpd. I.4 and Cpd. I.5).

[2] = test system: alpha-synuclein toxicity; experiment: alpha-synuclein screen (rescue of cells from alpha-synuclein toxicity); format: cell-based
[3] = test system: ΔF508 CFTR; experiment: ΔF508 CFTR stabilization in CFBE cells, western blot; format: cell-based; settings: 16 hours, 37° C.; for amount of cellular ΔF508 CFTR protein (band B) / amount of the glycosylated form of ΔF508 CFTR (band C): vs DMSO; for amount of glycosylated and unglycosylated ΔF508 CFTR proteins compared to absence of compound: all concentrations tested (1-10 μM)
Description: Selected compounds identified in the ypt1^ts screen were further tested for their ability to stabilize ΔF508 CTFR. CFBE cells, a cell line generated by transformation of cystic fibrosis tracheo-bronchial cells (ΔF508 CTFR homozygous) with SV40 (Bruscia et al. (2002) Gene Ther. 9(11):683-685), were cultured with 10 μM Cpd. I.3, 10 μM Cpd. II.2, or 10 μM VRT-325 for 16 hours at 37° C. (VRT-325 is described in, e.g., Van Goor et al. (2006) Am. J. Physiol. Lung Cell Mol. Physiol. 290:L1117-L1130). A population of cells was also cultured with the dimethyl sulfoxide (DMSO) solvent as a control.
Following incubation, cells were lysed, solubilized in Laemmli buffer, and subjected to SDS-PAGE. CFTR protein was visualized by western blotting using an antibody specific for CFTR. Culturing CFBE cells with Cpd. I.3 or Cpd. II.2 increased the amount of cellular ΔF508 CFTR protein (see band “B,” FIG. 3A). Cpd. I.3 and Cpd. […] The effects of Cpd. I.3 or Cpd.
Next, to test the effect of different concentrations of Cpd. I.3 and Cpd. II.2 on ΔF508 CFTR, a dose response experiment was performed. CFBE cells were grown at 37° C. for 16 hours in the presence of 1, 2.5, 5, or 10 μM Cpd. I.3 or Cpd. II.2. Following incubation, lysates were prepared from the various treated cell populations, the lysates solubilized in Laemmli buffer, and subjected to SDS-PAGE. The relative amounts of glysosylated (band “C”) and unglycosylated (band “B”) ΔF508 CFTR protein were visualized by western blotting as above (FIGS. 4A and 4C). The band intensities were quantitated by scanning and densitometry. […] I.3 (FIG. 4B) and Cpd. II.2 (FIG. 4D), respectively.

[4] = test system: sar1^ts mutant yeast strain; experiment: sar1^ts mutant growth rescue assay (OD600); format: cell-based; settings: 35° C., 72 hours, 0.05 to 50 μM
Description: The sar1st mutant yeast strain (ATCC, Manassas, Va.) carries a temperature sensitive mutant allele of the SAR1 gene, which permits the strain to grow at 25° C., but undergo growth arrest at 35° C. or higher. Inactivation of the mutant Sar1^ts protein at 35° C. prevents the formation of transport vesicles at the ER, causing a block in ER to golgi trafficking (Saito et al. (1998) J. Biochem. (Tokyo) 124(4):816-823).
To identify compounds that rescue the sar1^ts mutant phenotype, the mutant strain was first grown at 25° C. in rich media overnight. The strain was then diluted to an OD600 of 0.004 in SC media with 2% glucose, and mixed with various dilutions of test compounds (0.05 to 50 μM) in SC media with 2% glucose. The cells were then incubated at 25° C. or 35° C. for 72 hours. Rescue of the sar1^ts mutant phenotype was scored as an increase in the OD600 (concentration of the yeast cells) cultured in the presence of a test compound as compared to cells cultured cultured in the absence of the test compound.

[5] = test system: sec23-2^ts mutant yeast strain; experiment: sec23^ts mutant growth rescue assay (OD600); format: cell-based; settings: 30° C., 24 hours, 0.05 to 50 μM
Description: The sec23-2^ts mutant yeast strain carries a temperature sensitive mutant allele of the SEC23 gene, which permits the strain to grow normally at 25° C., but undergo growth arrest at 30° C. or higher. Inactivation of the Sec23 temperature-sensitive mutant protein at the restrictive temperature prevents the formation of transport vesicles at the ER resulting in a block in ER to golgi trafficking (see, e.g., Hicke et al. (1989) EMBO J. 8(6):1677-1684 and Castillo-Flores et al. (2005) J. Biol. Chem. 280(40):34033-34041).
To identify compounds that rescue the sec23^ts mutant phenotype, the mutant strain was first grown at 25° C. in rich media overnight. The strain was then diluted to an OD600 of 0.004 in SC media with 2% glucose, and mixed with various dilutions of test compounds compounds compounds (0.05 to 50 μM) in SC media with 2% glucose. The cells were then incubated at 25° C. or 30° C. for 24 hours. Rescue of the sec23^ts mutant phenotype was scored as an increase in the OD600 of cells cultured in the presence of the a compound as compared to cells cultured in the absence of the test compound.

[6] = test system: ΔF508 CFTR mutant; settings: cell-based studies, cited from earlier work

Compound	rescue of ypt1^ts loss of function / restoring growth of ypt1^ts [1]	rescue of the sar1^ts mutant phenotype [4]	rescue of the sec23^ts mutant phenotype [5]	further results
O=C1CC(c2cccc(Cl)c2)c2cc3c(cc2N1)CCC3 (stereo not drawn) [Cpd. II.3]	–	–	–	rescue of the ypt1^ts mutant phenotype ([1]; 5.0 μM, 37° C., 40 hours): rescued
N=C(NC(=O)[C@H]1C[C@@H]1c1ccccc1)Nc1nc2ccccc2o1 [Cpd. I.2]	rescued	–	–	activity in the alpha-synuclein screen [2]: active
COc1ccc(S(=O)(=O)N2CCN(C(C)c3nc(OC4CCCCC4)c4ccccc4n3)CC2)cc1 (stereo not drawn) [VRT-325, reference compound]	–	–	–	stabilization of ΔF508 CFTR protein in CFBE cells ([3]; 10 μM): stabilization
C#Cc1cccc(C2CC(=O)Nc3c2ccc2c3CCC2)c1 (stereo not drawn) [II.59]	–	not detected	not detected	–
CC(C)C[C@H](NC(=O)[C@H](Cc1ccccc1)NC(=O)c1cnccn1)B(O)O [bortezomib]	–	–	–	cellular chloride efflux ([6]; ΔF508 CFTR mutant): restoring; stabilization of the ΔF508 CFTR mutant, preventing premature degradation [6]: stabilize
tunicamycin [reference compound]	effective	–	–	–
N/C(=N\C(=O)C1CC1)Nc1nc2ccccc2s1 [Cpd. I.3]	rescued	rescue	rescue	rescue of the ypt1^ts mutant phenotype ([1]; 2.0 μM, 37° C., 40 hours): rescued; effects on stabilizing ΔF508 CFTR compared with VRT-325 ([3]; 10 μM): comparable or better; amount of cellular ΔF508 CFTR protein (band B) ([3]; 10 μM): increased; amount of the glycosylated form of ΔF508 CFTR (band C) ([3]; 10 μM): increased; concentration at which efficacy reached a maximum (dose response curves from western blot) [3]: 1 to 2.5 µM; amount of glycosylated and unglycosylated ΔF508 CFTR proteins compared to absence of compound [3]: increase; activity in the alpha-synuclein screen [2]: active
CC(C)C[C@@H](C=O)NC(=O)[C@H](CC(C)C)NC(=O)[C@H](CC(C)C)NC(=O)OCc1ccccc1 [MG132, reference compound] (Cbz-Leu-Leu-Leu-aldehyde)	–	–	–	rescue of ypt1^ts loss of function ([1]; 37° C., 40 hours, range 0.05-50 μM, intermediate concentrations): rescued
O=C1CC(c2cccc(Cl)c2)c2ccc(-c3ccccc3)cc2N1 (stereo not drawn) [II.27]	–	not detected	not detected	–
CO[C@@H]1[C@@H](OC(N)=O)[C@@H](O)[C@H](Oc2ccc3c(O)c(NC(=O)c4ccc(O)c(CC=C(C)C)c4)c(=O)oc3c2C)OC1(C)C [novobiocin, reference compound]	effective	–	–	–
O=C1CC(c2cccc(Cl)c2)c2ccc3c(c2N1)CCC3 (stereo not drawn) [Cpd. II.2]	–	not detected	not detected	effects on stabilizing ΔF508 CFTR compared with VRT-325 ([3]; 10 μM): comparable or better; amount of cellular ΔF508 CFTR protein (band B) ([3]; 10 μM): increased; amount of the glycosylated form of ΔF508 CFTR (band C) ([3]; 10 μM): increased; concentration at which efficacy reached a maximum (dose response curves from western blot) [3]: 2.5 to 5 µM; amount of glycosylated and unglycosylated ΔF508 CFTR proteins compared to absence of compound [3]: increase
CCC(=O)/N=C(\N)Nc1nc2ccccc2s1 [Cpd. I.1]	rescue	rescue	rescue	activity in the alpha-synuclein screen [2]: active
[Ca+2] [calcium, reference compound]	rescued	–	–	–
N=C(NC(=O)[C@@H]1C[C@@H]1c1ccccc1)Nc1nc2ccccc2o1 [Cpd. I.5]	did not	rescue	not detected	activity in the alpha-synuclein screen [2]: inactive
COc1ccc(OC)c(C2CC(=O)Nc3c2ccc2ccccc32)c1 (stereo not drawn) [II.12]	–	not detected	not detected	–
COc1cccc2c1C(=O)c1c(O)c3c(c(O)c1C2=O)C[C@@](O)(C(=O)CO)C[C@@H]3O[C@H]1C[C@H](N)[C@H](O)[C@H](C)O1 [doxorubicin, reference compound]	effective	not detected	not detected	–
C[C@@H]1C[C@@H]([C@H](O)CC2CC(=O)NC(=O)C2)C(=O)[C@@H](C)C1 [cycloheximide, reference compound]	effective	rescue	not detected	–
N/C(=N\C(=O)C1CCCCC1)Nc1nc2ccccc2o1 [Cpd. I.4]	did not	–	–	activity in the alpha-synuclein screen [2]: inactive
N/C(=N\C(=O)CCc1ccco1)Nc1nc2ccccc2o1 [Cpd. I.6]	–	rescue	not detected	–
O=C1CC(c2cccc(Cl)c2)c2cc3c4c(cccc4c2N1)CC3 (stereo not drawn) [II.57]	–	not detected	not detected	–
O=C1CC(c2ccccc2)c2ccc3ccccc3c2N1 (stereo not drawn) [Cpd. II.1]	rescue	not detected	not detected	activity in the alpha-synuclein screen [2]: active
aureobasidin [reference compound]	effective	not detected	not detected	–
